Experimental findings from patent US7544497B2, “Compositions for manipulating the lifespan and stress response of cells and organisms” (President and Fellows of Harvard College, priority 2003, dated 2009) are described below.

The structures appear in SMILES notation. Where “and” joins values, the source holds several entries; their conditions need not be identical. Identical values can stand only once.

In one data set the target is T1, recombinant human SIRT1 (Homo sapiens, UniProt Q96EB6).
T1 sequence (Q96EB6 1-747): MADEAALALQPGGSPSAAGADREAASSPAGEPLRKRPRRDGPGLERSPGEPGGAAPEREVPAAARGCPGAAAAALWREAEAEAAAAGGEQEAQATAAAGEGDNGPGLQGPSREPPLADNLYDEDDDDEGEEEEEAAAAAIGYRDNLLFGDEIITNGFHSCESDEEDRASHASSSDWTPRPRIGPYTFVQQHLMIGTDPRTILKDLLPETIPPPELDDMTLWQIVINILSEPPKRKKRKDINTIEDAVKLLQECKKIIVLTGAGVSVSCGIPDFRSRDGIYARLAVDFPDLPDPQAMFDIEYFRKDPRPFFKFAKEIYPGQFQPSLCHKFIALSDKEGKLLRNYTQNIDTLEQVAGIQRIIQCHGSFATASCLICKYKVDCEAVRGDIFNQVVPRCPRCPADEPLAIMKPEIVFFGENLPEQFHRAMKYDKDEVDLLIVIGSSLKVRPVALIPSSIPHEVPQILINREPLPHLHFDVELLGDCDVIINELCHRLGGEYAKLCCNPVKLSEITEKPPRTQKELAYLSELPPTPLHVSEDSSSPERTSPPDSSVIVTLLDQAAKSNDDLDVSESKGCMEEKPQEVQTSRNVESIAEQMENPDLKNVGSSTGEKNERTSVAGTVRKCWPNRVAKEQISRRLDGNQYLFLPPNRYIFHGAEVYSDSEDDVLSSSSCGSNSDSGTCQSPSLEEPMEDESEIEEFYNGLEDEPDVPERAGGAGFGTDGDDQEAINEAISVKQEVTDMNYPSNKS
Description: SIRT1 fluorescent deacetylation assay (p53-382 acetylated peptide substrate). In kind it is biochemical. Particulars: for SIRT1 stimulating activity (in words): 25 μM NAD+, 25 μM p53-382 acetylated peptide. The source says:
To identify compounds that modulate SIRT1 activity, we screened a number of small molecule libraries using a fluorescent deacetylation assay in 96-well plates^26. The substrate used in the assay was a fluorogenic peptide based on the sequence encompassing the p53-K382 acetylation site, a known target of SIRT1 in vivo^20,21,27. This substrate was preferred over a variety of other fluorogenic peptide substrates that were based on other known HDAC targets (FIG. 5). The small molecule libraries included analogues of nicotinamide, ε-acetyl lysine, NAD^+, nucleotides, nucleotide analogues and purinergic ligands. From the initial screen, several sirtuin inhibitors were found (Supplementary Table 7). However, the most striking outcome was the identification of two compounds, quercetin and piceatannol, that stimulated SIRT1 activity five and eight-fold, respectively (Table 1). Both quercetin and piceatannol have been previously identified as protein kinase inhibitors^28,29.
His6-tagged recombinant SIRT1 and GST-tagged recombinant Sir2 were prepared as previously described^26. From 0.1 to 1 μg of SIRT1 and 1.5 μg of Sir2 were used per deacetylation assay (in 50 μl total reaction) as previously described^26. SIRT1 assays and certain of those for Sir2 employed the p53-382 acetylated substrate (‘Fluor de Lys-SIRT1’, BIOMOL) rather than FdL.
Themed compound libraries (BIOMOL) were used for primary and secondary screening. […] For water soluble compounds and negative controls, 1% v/v DMSO was added to the assay. […] HeLa cells were grown and the cellular deacetylation assays were performed and read, as above, but in full-volume 96-well microplates (Corning Costar 3595). Unless otherwise indicated all initial rate measurements were means of three or more replicates, obtained with single incubation times, at which point 5% or less of the substrate initially present had been deacetylated. Calculation of net fluorescence increases included subtraction of a blank value, which in the case of Sir2 was obtained by omitting the enzyme from the reaction and in the case of SIRT1 by adding an inhibitor (200 μM suramin or 1 mM nicotinamide) to the reaction prior to the acetylated substrate. […] All error bars represent the standard error of the mean.
All SIRT1 rate measurements used in the calculation of “Ratio to Control Rate” were obtained with 25 μM NAD^+ and 25 μM p53-382 acetylated peptide substrate were performed as described above and in K. T. Howitz et al. Nature (2003) 425: 191. All ratio data were calculated from experiments in which the total deacetylation in the control reaction was 0.25-1.25 μM peptide or 1-5% of the initial concentration of acetylated peptide.

Another data set relates to C. elegans. In words: C. elegans lifespan assay. It counts as in vivo. The note with it: 100/500 μM, N2 worms, E. coli as food; untreated 100%. On the procedure:
Thus, the presence of resveratrol in the growth media of C. elegans extends their lifespan.
Bristol N2 (Caenorhabditis Genetics Center) was used as the wild-type strain. The sir-2.1 mutant strain was generated by backcrossing VC199 (sir-2.1 (ok434)) to N2 four times. Cultures were grown on standard NGM media and maintained on E. coli strain OP50. For the lifespan assays, synchronized animals were transferred to treatment plates as young adults (2 d after hatching, day 0 of assay), and were transferred to fresh treatment plates every 2 days for the first 6 to 8 days of the assay. […] For some lifespan trials, heat-killed OP50 were used as a food source. OP50 cultures were heated to 65° C. for 30 minutes, then pelleted and resuspended in 1/10 volume in S Basal supplemented with 10 mM MgSO4. In all assays, worms were monitored daily for mortality by gently probing with a platinum pick. Assays were performed at 24° C.

A short description of data set [1]: Solution stability (t1/2) from SIRT1 fold-stimulation of aged stock. The note with it: ethanol stock 2.5 mM, room temperature, nitrogen atmosphere. It counts as physicochemical. The source says: The fold-stimulation (ratio to control) obtained with a compound diluted from an aged stock solution was compared to an identical dilution from a stock solution freshly prepared from the solid compound. “t1/2” is defined as the time required for the SIRT1 fold-stimulation of the compound from the aged solution to decay to one-half of that obtained from a freshly prepared solution. […] Stocks were aged by storage at room temperature, in glass vials, under a nitrogen atmosphere.

The next data set relates to S. cerevisiae. Description: Yeast replicative lifespan by micro-manipulation. The note with it: 10 μM; for Average lifespan: complete 2% glucose medium, wild type untreated 22.9.
A further data set deals with Human 293 cells. Description: Survival of 293 cells (Coulter counter). It counts as cell-based. The note with it: 50 micromolar. On the procedure:
Human 293 were grown to exponential phase under standard conditions and subjected to a dose of compound (50 micromolar) for 96 hours. The number of live cells each time point was counted using a Coulter counter.

Another data set deals with T2, SIRT1 deacetylase (Homo sapiens, UniProt Q96EB6).
T2 construct: purchased BIOMOL
T2 sequence (Q96EB6 1-747): T1 sequence (Q96EB6 1-747)
Description: High-throughput SIRT1 screening protocol (384 well). In kind it is biochemical. Particulars: 200 μM NAD+, 5 μM Fluor de Lys-SIRT1 substrate; roughly 50 μM. On the procedure:
The reaction mixture contains (final): 0.5 units/reaction SIRT1 deacetylase (BIOMOL); 200 μM NAD^+; 5 μM Fluor de Lys-SIRT1 substrate (BIOMOL); buffer (25 mM Tris/Cl, pH 8.0, 137 mM NaCl, 2.7 mM KCl, 1 mM MgCl2, and 1 mg/ml BSA). In addition, a reaction mixture containing no enzyme was made so that each well receiving compound has a corresponding “no enzyme control” well. Reactions were performed in black 384 well plates (NUNC) in a final volume of 25 μl/well.
The reactions were started by combining enzyme and substrate in a reaction mixture immediately prior to aliquoting in plates (or substrate only for “no enzyme control” plates). Mixture were aliquoted to plates using Biotek μFill (Biotek Instruments). Control mixtures were manually added to designated wells. A library compound was added at a desired concentration by pin transfer to both “with enzyme” and “no enzyme” plates. Compounds were added in at least triplicate (with enzyme reaction in duplicate and no enzyme controls) at a final concentration of roughly 50 μM. The plates were incubated at 37° C. for 30-60 minutes. Then 25 μl of 1× Developer II (BIOMOL) plus 2 mM nicotinamide were added to all wells to stop the reactions. The reactions were left for at least 30 minutes at 37° C. for the signal to develop. The plates were read in a microplate-reading fluorometer capable of excitation at a wavelength in the range of 350-380 nm and detection of emitted light in the range of 440-460 nm. A read time of 0.1 sec per well was used.

The next data set concerns D. melanogaster. In words: D. melanogaster adult survival assay. It counts as in vivo. On the procedure:
Survival assays were conducted independently with adult D. melanogaster in two laboratories. In the first laboratory, all trials used an yw marked wild-type strain. […] Newly eclosed adults were placed in 1L demography cages with approximately 75 males and 75 females. Three to four replicate 1L demography cages were used for each treatment group in each trial. Every two days, dead flies were removed and scored, and food vials were replenished. Food vials contained cornmeal-sugar-yeast diet with SAF yeast as either 2% or 3% by weight. […] Fresh stock solutions and adult media were prepared weekly. In the second laboratory, lifespan trials were conducted with the wild type strain Canton-S, dSir2^4.5 and […], University of Oregon), […], Stockholm University, Sweden), and dSir2^KG00871 (Drosophila Stock Center, Bloomington, Ind.). Larvae for all tests were reared on standard cornmeal-sugar-yeast diet. […] In all trials, 20 males with 20 females were placed into each of 10 vials/treatment group. Every two days, flies were passed into new vials and dead flies were counted. […] Fresh stock solution and adult media was prepared weekly.

On to `Oc1cc(O)cc(/C=C/c2ccc(Cl)cc2)c1` [BML-217, 3,5-Dihydroxy-4′-chloro-trans-stilbene], for which, on recombinant human SIRT1, the “SIRT1 stimulating activity (in words)” value was “did not significantly diminish”.
The same measure, in the same setting: then `O=C(Nc1cc(O)cc(O)c1)c1ccccc1` [BML-219, N-(3,5-Dihydroxyphenyl)benzamide], with “abolished activity”.
For `CC(=O)Oc1cc(O)cc(/C=C/c2ccc(O)cc2)c1` [BML-221, 3,4′-Dihydroxy-5-acetoxy-trans-stilbene], the “% change in C. elegans lifespan relative to untreated organisms” value in the data set with C. elegans is >100% (ongoing). The “solution stability relative to resveratrol” value in data set [1] was “vast improvement”. In addition, the “% change in yeast replicative lifespan relative to untreated organisms” value in the data set with S. cerevisiae (2% (w/v) glucose YPD, untreated 100%) came out at 165%.
As to `Oc1cc(O)cc(/C=C/C2CCCCC2)c1` [BML-224], the “SIRT1 stimulating activity (in words)” value on recombinant human SIRT1 is given as “nearly as detrimental”.
As for `CCc1ccc(/C=C/c2cc(O)cc(O)c2)cc1` [BML-225], the results for the “Survival of 293 cells” value in the data set on Human 293 cells (0 h), in the data set on Human 293 cells (48 h) and with Human 293 cells (96 h) were 100%, 5% and 8%, respectively.
In the same order, the values of `Cc1ccc(/C=C/c2cc(O)cc(O)c2)cc1` [BML-228] are 100%, 46% and 32%.
`CSc1ccc(/C=C/c2cc(O)cc(O)c2)cc1` [BML-230]: the “SIRT1 dose response, stimulated activity compared with resveratrol” value at recombinant human SIRT1 (25 μM NAD+ and p53-382 acetylated peptide, 20 minutes) was “exceeds that stimulated by resveratrol at all concentrations tested”. Besides, the “ratio (R) of BML-230-stimulated to resveratrol-stimulated SIRT1 rate” value at recombinant human SIRT1 (500 μM activator, 25 μM NAD+ and p53-382 acetylated peptide, 20 minutes) was about 1.4. Also, the “Survival of 293 cells” value in the data set on Human 293 cells (0 h) is recorded as 100%; in the data set on Human 293 cells (48 h) it was 55%; in the data set on Human 293 cells (96 h), 57%.
On to `[N-]=[N+]=Nc1ccc(/C=C/c2cc(O)cc(O)c2)cc1` [BML-232], for which the “SIRT1 stimulating activity (in words)” value on recombinant human SIRT1 is recorded as “very similar SIRT1 activating properties to resveratrol”.
Consider `COc1ccc(/C=C/c2cc(O)cc(O)c2)cc1` [BML-233, 3,5-Dihydroxy-4′-methoxy-trans-stilbene], for which, on SIRT1 deacetylase, the “activation of SIRT1 (positive controls)” value is given as 2.1 fold.
Regarding `NC(=O)c1cccnc1` [Nicotinamide], the “SIRT1 Vmax decrease” value on recombinant human SIRT1 (50 μM nicotinamide, absence of resveratrol, NAD+ or p53-382 acetylated peptide varied) was 30% and 36%.
In the case of `Oc1cc(O)cc(/C=C/c2ccccc2)c1` [Pinosylvin, 3,5-Dihydroxy-trans-stilbene], on recombinant human SIRT1, the “SIRT1 stimulating activity (in words)” value was “did not significantly diminish”. The “activation of SIRT1 (positive controls)” value at SIRT1 deacetylase amounted to 3.28 fold.
The molecule `O=C(/C=C/c1ccc(O)c(O)c1)c1ccc(O)cc1O` [butein] registered an Average lifespan in the data set with S. cerevisiae of 35.5 generations.
Consider `O=c1c(O)c(-c2ccc(O)c(O)c2)oc2cc(O)ccc12` [fisetin], for which the “longevity on restricted diet” value in the data set with D. melanogaster (restricted diet) was “neither resveratrol nor fisetin further increased longevity”. In addition, the “lifespan extension (up to)” value in the data set on D. melanogaster (wild type, males and females, independent tests) is “up to 23%”. This molecule also gave an Average lifespan in the data set with S. cerevisiae of 30.0 generations.
For `O=c1c(-c2ccc(O)cc2)coc2cc(O)cc(O)c12` [genistein], the “SIRT1 stimulating activity (in words)” value at recombinant human SIRT1 is “absence of activity”.
As to `Oc1cc(O)cc(/C=C/c2ccc(O)c(O)c2)c1` [piceatannol], in the data set on S. cerevisiae, the Average lifespan is 24.0 generations.
`O=c1c(O)c(-c2ccc(O)c(O)c2)oc2cc(O)cc(O)c12` [quercetin]: the “stimulation of SIRT1 activity” value on recombinant human SIRT1 (initial screen) is reported as “five”. The molecule also gave an Average lifespan in the data set on S. cerevisiae of 23.4 generations.
